# Literature values in patent US7904011B2, “Temperature control unit and image forming apparatus including same” (Ricoh Company, Ltd., priority 2007, dated 2011).
# Details: in vivo
row,SMILES,acute oral toxicity LD50
1,CCOCCOC(=O)CCC(=O)OCCOCC [diethoxyethyl succinate],5000 mg/kg
2,CC1COC(=O)O1 (stereo not drawn) [propylene carbonate],29000 mg/kg
3,"[Cl-].[Na+] [salt, reference compound]",3000 mg/kg
